Where two headings read alike, the source gives them in different places.
Key:
Assay type in all cases: cell-based, human
[1] = system: p-ERK in NCI-H441 cells (KRAS G12V mutation); experiment: Cell p-ERK assay (HTRF) in NCI-H441 cells; settings: NCI-H441 cells, 3 h compound incubation, HTRF p-ERK T202/Y204, read-out: H441 p-ERK IC50
Summary of the method: (§1)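 AsPC-1 (10000/well) or NCI-H441 (20000/well) cells were seeded in RPMI-1640 with 10% FBS, grown overnight, then exposed to 3.16-fold compound dilutions (0.1% DMSO) for 3 h at 37 °C. Lysates were read for phospho-ERK T202/Y204 by HTRF; IC50 came from four-parameter fits of inhibition versus DMSO and blank wells.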

NCI-H441 cells = experiment: 3D cell proliferation assay (CellTiter Glo-3D), NCI-H441; settings: medium with 2% FBS, read-out: H441 AP IC50
Summary of the method: (§2)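 NCI-H441 ([…] lung) and AsPC-1 (KRAS G12D pancreatic) cells, 800 per well, were seeded in RPMI-1640 with 2% FBS and dosed next day with 3.16-fold compound dilutions (0.1% DMSO). After 5 days at 37 °C, CellTiter-Glo 3D luminescence gave inhibition versus DMSO and blank; IC50 from four-parameter fit.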

[2] = system: AsPC-1 cells (KRAS G12D mutation); experiment: 3D cell proliferation assay (CellTiter Glo-3D), AsPC-1; settings: medium with 2% FBS, read-out: AsPC-1 AP IC50
Summary of the method: as §2

[3] = system: p-ERK in AsPC-1 cells (KRAS G12D mutation); experiment: Cell p-ERK assay (HTRF) in AsPC-1 cells; settings: AsPC-1 cells, 3 h compound incubation, HTRF p-ERK T202/Y204, read-out: AsPC-1 p-ERK IC50
Summary of the method: as §1

[4] = 3D cell proliferation (CellTiter Glo-3D)
[5] = Homo sapiens, NCI-H441, 3D cell proliferation (CellTiter Glo-3D)
[6] = Homo sapiens, ASPC1, 3D cell proliferation (CellTiter Glo-3D)

SMILES | IC50 [1] [nM] | IC50 (NCI-H441 cells; [4]) [nM] | IC50 [2, 4] [nM] | IC50 [3] [nM] | IC50 ([1]; Homo sapiens, NCI-H441, 3 h) [nM] | IC50 (NCI-H441 cells; [5]) [nM] | IC50 [2, 6] [nM] | IC50 ([3]; Homo sapiens, ASPC1, 3 h) [nM]
CCn1c(-c2cc(C#CCN3CCC3)cnc2[C@H](C)OC)c2c3cc(ccc31)-c1csc(n1)C[C@H](NC(=O)[C@H]1[C@H](C)[C@@H]1C)C(=O)N1CCC[C@H](N1)C(=O)OCC(C)(C)C2 (atropisomer, axis not shown; (Sa)) [Compound Z555, (1r,2R,3S)—N-((6^3S,4S,Z)—(Sa)-1^2-(5-(3-(azetidin-1-yl)prop-1-yn-1-yl)-2-((S)-1-methoxyethyl)pyridin-3-yl)-1^1-ethyl-10,10-dimethyl-5,7-dioxo-6^1,6^2,6^3,6^4,6^5,6^6-hexahydro-1^1H-8-oxa-2(4,2)-thiazola-1(5,3)-indola-6(1,3)-pyridazinacycloundecaphane-4-yl)-2,3-dimethylcyclopropane-1-carboxamide] | 11.2 | 18.4 | 30.4 | 13.4 | – | – | – | –
CCn1c(-c2cc(C#CC(C)N3CCC3)cnc2[C@H](C)OC)c2c3cc(ccc31)-c1csc(n1)C[C@H](NC(=O)[C@H]1[C@H](C)[C@@H]1C)C(=O)N1CCC[C@H](N1)C(=O)OCC(C)(C)C2 (atropisomer, axis not shown; (Sa)) [Compound Z613-2, (1r,2R,3S)—N-((6^3S,4S,Z)-12-(5-(3-(azetidin-1-yl)but-1-yn-1-yl)-(Sa)-2-((S)-1-methoxyethyl)pyridin-3-yl)-4′-ethyl-10,10-dimethyl-5,7-dioxo-6^1,6^2,6^3,6^4,6^5,6^6-hexahydro-1^1H-8-oxa-2(4,2)-thiazola-(5,3)-indola-6(1,3)-pyridazinacycloundecaphane-4-yl)-2.3-dimethylcyclopropane-1-carboxamide] | – | – | – | – | 0.34 | 0.7 | 0.79 | 0.68
CCn1c(-c2cc(OCCN3CCOCC34CC4)cnc2[C@H](C)OC)c2c3cc(ccc31)-c1csc(n1)C[C@H](NC(=O)[C@H]1C[C@@H]1C(F)F)C(=O)N1CCC[C@H](N1)C(=O)OCC1(CC1)C2 (relative stereo) [Compound Z557, (1S,2S)—N-((3′S,4′S,Z)—(Ra)-2′-(5-(2-(7-oxa-4-azaspiro[2,5]octan-4-yl)ethoxy)-2-((S)-1-methoxyethyl)pyridin-3-yl)-1′-ethyl-5′,7′-dioxospiro[cyclopropane-1,10′-8-oxa-2(4,2)-thiazola-1(5,3)-indola-6(1,3)-pyridazinacycloundecaphan]-4′-yl)-2-trans-(difluoromethyl)cyclopropane-1-carboxamide] | 5.56 | 7.66 | 16.3 | 20.7 | – | – | – | –
CCn1c(-c2cc(N3CCN(C)CC3)cnc2[C@H](C)OC)c2c3cc(ccc31)-c1csc(n1)C[C@H](NC(=O)C(C)(C)F)C(=O)N1CCC[C@H](N1)C(=O)OCC(C)(C)C2 (single isomer, unassigned) [Compound Z5] | 4.24 | 12.3 | 19.5 | 2.81 | – | – | – | –
CCn1c(-c2cc([C@@H]3CCN4CCOC[C@@H]4C3)cnc2[C@H](C)OC)c2c3cc(ccc31)-c1csc(n1)C[C@H](NC(=O)[C@H]1[C@H](C)[C@@H]1C)C(=O)N1CCC[C@H](N1)C(=O)OCC1(CC1)C2 (single isomer, unassigned) [Compound Z77] | – | – | – | – | 7.48 | 4.94 | 17.4 | 13.9
CCn1c(-c2cc([C@H]3CCN4CCOC[C@H]4C3)cnc2[C@H](C)OC)c2c3cc(ccc31)-c1csc(n1)C[C@H](NC(=O)[C@H]1[C@H](C)[C@@H]1C)C(=O)N1CCC[C@H](N1)C(=O)OCC1(CC1)C2 (single isomer, unassigned) [Compound Z78] | – | – | – | – | 9.86 | 7.54 | 28.3 | 18.7
CCn1c(-c2cc([C@H]3CCN4CCOC[C@@H]4C3)cnc2[C@H](C)OC)c2c3cc(ccc31)-c1csc(n1)C[C@H](NC(=O)[C@H]1[C@H](C)[C@@H]1C)C(=O)N1CCC[C@H](N1)C(=O)OCC1(CC1)C2 (single isomer, unassigned) [Compound Z79] | – | – | – | – | 9.7 | 6.59 | 19.3 | 24.1
CCn1c(-c2cc([C@@H]3CCN4CCOC[C@H]4C3)cnc2[C@H](C)OC)c2c3cc(ccc31)-c1csc(n1)C[C@H](NC(=O)[C@H]1[C@H](C)[C@@H]1C)C(=O)N1CCC[C@H](N1)C(=O)OCC1(CC1)C2 (single isomer, unassigned) [Compound Z80] | – | – | – | – | 11.7 | 7.27 | 19 | 25.3
CCn1c(-c2cc(OCC34CCCN3CCC4)cnc2[C@H](C)OC)c2c3cc(ccc31)-c1csc(n1)C[C@H](NC(=O)[C@H]1[C@H](C)[C@@H]1C)C(=O)N1CCC[C@H](N1)C(=O)OCC1(CC1)C2 (single isomer, unassigned) [Compound Z339] | – | – | – | – | 5.48 | 7.33 | 18.3 | 10.8
CCn1c(-c2cc(C#C[C@@H]3CCCN3C)cnc2[C@H](C)OC)c2c3cc(ccc31)-c1csc(n1)C[C@H](NC(=O)[C@H]1[C@H](C)[C@@H]1C)C(=O)N1CCC[C@H](N1)C(=O)OCC(C)(C)C2 (single isomer, unassigned) [Compound Z598A] | 1.7 | 4.73 | 6.52 | 4.13 | – | – | – | –
CCn1c(-c2cc(OCCN3CCP(C)(=O)CC3)cnc2[C@H](C)OC)c2c3cc(ccc31)-c1csc(n1)C[C@H](NC(=O)[C@H]1[C@H](C)[C@@H]1C)C(=O)N1CCC[C@H](N1)C(=O)OCC(C)(C)C2 (single isomer, unassigned) [Compound Z780] | – | – | – | – | 1.56 | 1.58 | 4.51 | 3.35
CCn1c(-c2cc(C#CCN3CCCOCC3)c[n+]([O-])c2[C@H](C)O)c2c3cc(ccc31)-c1csc(n1)C[C@H](NC(=O)[C@H]1[C@H](C)[C@@H]1C)C(=O)N1CCC[C@H](N1)C(=O)OCC(C)(C)C2 (single isomer, unassigned) [Compound Z1039] | – | – | – | – | 0.51 | 1.21 | 1.28 | 0.95
CCn1c(-c2cc(N3CCN4CCOC[C@@H]4C3)cnc2[C@H](C)OC)c2c3cc(ccc31)-c1csc(n1)C[C@H](NC(=O)[C@H]1[C@H](C)[C@@H]1C)C(=O)N1CCC[C@H](N1)C(=O)OCC(C)(C)C2 [Compound Z72] | 0.31 | 0.51 | 0.88 | 0.31 | – | – | – | –
CCn1c(-c2cc(C3(C(=O)N4CCN(C)CC4)CC3)cnc2[C@H](C)OC)c2c3cc(ccc31)-c1csc(n1)C[C@H](NC(=O)[C@H]1[C@H](C)[C@@H]1C)C(=O)N1CCC[C@H](N1)C(=O)OCC(C)(C)C2 [Compound Z75, (1r,2R,3S)—N-((6^3S,4S,Z)-1^1-ethyl-1^2-(2-((S)-1-methoxyethyl)-5-(1-(4-methylpiperazine-1-carbonyl)cyclopropyl)pyridin-3-yl)-10,10-dimethyl-5,7-dioxo-6^1,6^2,6^3,6^4,6^5,6^6-hexahydro-1^1H-8-oxa-2(4,2)-thiazola-1(5,3)-indola-6(1,3)-pyridazinacycloundecaphane-4-yl)-2,3-dimethylcyclopropane-1-carboxamide] | – | – | – | – | 18.6 | 19.4 | 56.5 | 38.7
